Measured values taken from patent publication US9040713B2, “Methods of managing blood sugar levels and compositions related thereto” (EMORY UNIVERSITY, priority 2010, dated 2015).
Values joined by “and” are separate entries in the source; they are usually repeats but may differ in a detail not shown here. Equal entries are not always repeated.

Assays:
IR [1] = molecular target: IR (Mus musculus, UniProt P15208); experiment: IR phosphorylation and downstream signaling in mouse tissues; assay type: in vivo; conditions: for IR and ERK phosphorylations in liver and muscle: 5 mg/kg oral, 1 and 2 h
IR (Mus musculus, UniProt P15208), sequence (P15208 28-1372): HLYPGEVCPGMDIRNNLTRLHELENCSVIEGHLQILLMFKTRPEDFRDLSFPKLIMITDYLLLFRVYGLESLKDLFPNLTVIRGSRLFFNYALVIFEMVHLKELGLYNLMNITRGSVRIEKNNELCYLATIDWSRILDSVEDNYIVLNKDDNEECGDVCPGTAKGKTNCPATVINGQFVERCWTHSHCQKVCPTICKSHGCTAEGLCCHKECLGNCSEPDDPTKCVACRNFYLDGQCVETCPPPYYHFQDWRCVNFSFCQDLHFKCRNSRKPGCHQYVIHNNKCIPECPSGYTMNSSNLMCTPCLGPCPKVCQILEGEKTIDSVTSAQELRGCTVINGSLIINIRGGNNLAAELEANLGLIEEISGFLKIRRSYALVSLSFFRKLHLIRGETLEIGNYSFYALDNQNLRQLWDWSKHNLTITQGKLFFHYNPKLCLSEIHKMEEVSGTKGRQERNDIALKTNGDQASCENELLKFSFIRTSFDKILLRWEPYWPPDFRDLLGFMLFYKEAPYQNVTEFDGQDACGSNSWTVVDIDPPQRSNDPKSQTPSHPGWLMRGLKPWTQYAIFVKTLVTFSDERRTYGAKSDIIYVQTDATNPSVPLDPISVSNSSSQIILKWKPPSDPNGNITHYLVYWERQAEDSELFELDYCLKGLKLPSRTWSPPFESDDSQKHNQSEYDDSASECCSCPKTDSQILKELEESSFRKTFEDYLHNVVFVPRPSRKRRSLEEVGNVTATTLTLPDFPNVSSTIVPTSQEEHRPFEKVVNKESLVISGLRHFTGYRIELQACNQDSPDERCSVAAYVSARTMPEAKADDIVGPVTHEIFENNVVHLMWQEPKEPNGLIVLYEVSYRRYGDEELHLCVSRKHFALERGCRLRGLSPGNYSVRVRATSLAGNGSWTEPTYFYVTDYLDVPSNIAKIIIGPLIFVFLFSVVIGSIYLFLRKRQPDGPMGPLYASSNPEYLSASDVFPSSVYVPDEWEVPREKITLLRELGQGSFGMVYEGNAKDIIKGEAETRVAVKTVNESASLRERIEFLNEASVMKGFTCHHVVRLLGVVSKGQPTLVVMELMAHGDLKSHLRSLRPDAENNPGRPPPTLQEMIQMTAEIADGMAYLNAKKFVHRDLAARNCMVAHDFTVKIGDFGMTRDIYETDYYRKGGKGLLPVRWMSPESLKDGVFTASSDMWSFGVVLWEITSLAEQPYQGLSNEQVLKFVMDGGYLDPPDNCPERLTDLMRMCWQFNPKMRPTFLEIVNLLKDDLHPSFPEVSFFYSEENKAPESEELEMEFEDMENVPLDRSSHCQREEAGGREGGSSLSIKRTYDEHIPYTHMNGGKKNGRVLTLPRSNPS
Description: (A) DDN reduces blood glucose in C57BL/6J mice. […] Blood glucose was monitored before and after dosing at various time points as indicated (*: P<0.05, **: P<0.01; ***: P<0.001, n=10-13, Two-way ANOVA vs vehicle). (B) DDN provokes IR phosphorylation and its downstream signaling in C57BL/6J mice. Three month-old C57BL/6J mice were starved for 12 h and then orally administrated with vehicle (0.5% methylcellulose), DDN (20 mg/kg) or 2NH2-NQ (20 mg/kg). Cell lysates were prepared from liver and muscle tissues collected at 3, 4, and 5 h after drug administration and analyzed by immunoprecipitation and immunoblotting. (C) DDN quickly activates IR phosphorylation and its downstream signaling. Three-month-old C57BL/6J mice were starved for 12 h and then injected with vehicle, 5 mg/kg DDN or 5 mg/kg 2NH2-NQ through vena cava. After 5 min, the liver was collected and analyzed by immunobloting using specific antibodies.
Three-month-old mice were starved for 12 h and then orally administrated with vehicle (0.5% methylcellulose) or DDN (5 mg/kg). Cell lysates were prepared from liver and muscle tissues collected at 1 and 2 h after drug administration and analyzed by immunoprecipitation and immunoblotting. […] Three-month-old mice were starved for 12 h and then orally administrated with vehicle (0.5% methylcellulose) or DDN (5 mg/kg). Cell lysates were prepared from liver and muscle tissues collected at 1 and 2 h after drug administration and analyzed by immunoprecipitation and immunoblotting. (C) Hypoglycemic function of DDN in db/db mice. The animals were starved for 12 h and then orally injected with vehicle (0.5% methylcellulose) or DDN (5 mg/kg). […] Blood glucose was monitored before and after drug administration at 1-hour intervals (*: P<0.05, **: P<0.01, n=5, Two-way ANOVA vs vehicle). (D) DDN improves the glucose tolerance in ob/ob mice. The animals were starved for 12 h and then orally dosed with vehicle (0.5% methylcellulose) or DDN (5 mg/kg). […] A bonus of glucose (2 gm/kg) was injected intraperitoneally 1 hour later. Blood glucose was measured at 30-min intervals (*: P<0.05, **:P<0.01, n=5, Two-way ANOVA vs vehicle control).
(A) 4524-E7 provokes IR phosphorylation in various tissues of mice. Three-month-old C57BL/6J mice were starved for 12 h and then dosed with vehicle (0.5% methylcellulose) or 4524-E7 (20 mg/kg). Cell lysates from liver, muscle, and WAT were prepared at 3, 4, and 5 h after drug administration and analyzed by immunoblotting. (B) Basal and insulin-stimulated hepatic glucose production rates were measured by hyperinsulinemic-euglycemic clamp. […] (C) Hypoglycemic effect of 4524-E7 in C57BL/6J mice. C57BL/6J mice were starved for 12 h and then orally administrated with vehicle (0.5% methylcellulose) or 4524-E7 (5 mg/kg). Blood glucose was monitored at different time points as indicated (n=8, *: P<0.05, two-way ANOVA). (D) Hypoglycemic effect in db/db mice. db/db mice were starved for 12 h and then orally injected with vehicle (0.5% methylcellulose) or 4524-E7 (5 mg/kg). Blood glucose was monitored at different time points as indicated (n=5, *: P<0.05, two-way ANOVA). (E) Glucose tolerance test in ob/ob mice. The mice were starved for 12 hours and then orally administrated with vehicle or 4524-E7 (5 mg/kg). A bonus of glucose (2 gm/kg) was injected intraperitoneally 1 hour later. Blood glucose was then measured at 30 min intervals (n=13, *: P<0.05; **: P<0.01, two-way ANOVA).
After a 12 h fasting, C57BL/6J mice were orally administrated with 20 mg/kg of compound in 0.5% methylcellulose, and sacrificed at 3 h, 4 h and 5 h following compound administration. Fat tissues were dissected quickly and frozen on dry ice. Fat lysates were prepared and analyzed by Western blotting.

IR [2] = molecular target: IR (Homo sapiens, UniProt P06213); experiment: Immunoblotting of IR phosphorylation and downstream signaling in CHO-IR cells; assay type: cell-based; set-up: expressed in transfected cells; host or cells: CHO (CHO-IR, gift from Dr. Nicholas Webster, UCSD)
IR (Homo sapiens, UniProt P06213), sequence (P06213 763-1382 limits assumed): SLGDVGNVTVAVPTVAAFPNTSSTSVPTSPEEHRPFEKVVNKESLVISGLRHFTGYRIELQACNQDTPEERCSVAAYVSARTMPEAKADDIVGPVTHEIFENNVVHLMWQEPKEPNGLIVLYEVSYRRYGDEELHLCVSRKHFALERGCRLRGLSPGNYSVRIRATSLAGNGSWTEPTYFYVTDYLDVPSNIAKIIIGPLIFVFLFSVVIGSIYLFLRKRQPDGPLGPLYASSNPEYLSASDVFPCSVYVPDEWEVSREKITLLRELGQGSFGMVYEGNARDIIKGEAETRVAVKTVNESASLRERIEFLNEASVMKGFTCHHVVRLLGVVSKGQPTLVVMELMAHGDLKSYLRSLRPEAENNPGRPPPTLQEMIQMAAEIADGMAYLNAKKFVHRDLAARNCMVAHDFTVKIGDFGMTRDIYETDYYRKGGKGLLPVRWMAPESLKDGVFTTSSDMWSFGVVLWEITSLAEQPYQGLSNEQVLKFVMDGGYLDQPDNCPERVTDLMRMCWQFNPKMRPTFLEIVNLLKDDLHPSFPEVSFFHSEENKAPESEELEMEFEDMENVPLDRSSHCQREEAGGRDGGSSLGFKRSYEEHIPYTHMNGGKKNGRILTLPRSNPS
IR (Homo sapiens, UniProt P06213), sequence (P06213 28-758 limits assumed): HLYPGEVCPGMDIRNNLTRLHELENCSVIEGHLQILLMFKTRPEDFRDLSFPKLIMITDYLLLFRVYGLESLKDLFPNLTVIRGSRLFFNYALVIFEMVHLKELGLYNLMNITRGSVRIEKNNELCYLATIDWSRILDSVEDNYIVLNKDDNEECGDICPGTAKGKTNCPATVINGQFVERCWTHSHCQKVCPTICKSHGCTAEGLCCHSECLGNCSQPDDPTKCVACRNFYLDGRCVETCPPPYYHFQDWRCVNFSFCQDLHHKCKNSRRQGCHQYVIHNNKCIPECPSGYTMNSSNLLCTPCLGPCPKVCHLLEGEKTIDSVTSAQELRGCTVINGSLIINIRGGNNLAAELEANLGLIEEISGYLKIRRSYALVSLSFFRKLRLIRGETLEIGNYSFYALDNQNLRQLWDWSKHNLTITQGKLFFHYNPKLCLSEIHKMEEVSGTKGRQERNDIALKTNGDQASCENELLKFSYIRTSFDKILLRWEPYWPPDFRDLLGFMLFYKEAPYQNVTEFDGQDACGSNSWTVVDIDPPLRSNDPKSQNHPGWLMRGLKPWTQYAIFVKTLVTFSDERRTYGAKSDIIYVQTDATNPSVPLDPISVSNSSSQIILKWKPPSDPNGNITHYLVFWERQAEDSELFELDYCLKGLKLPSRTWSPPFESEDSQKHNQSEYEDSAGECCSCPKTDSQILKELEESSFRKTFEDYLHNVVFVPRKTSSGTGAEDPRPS
Description: The cell lysates were analyzed by immunoblotting with anti-phospho-IR antibodies, or immunoprecipitated by PY20 and analyzed using anti-IR and anti-IRS-1, respectively. […] The cell lysates were analyzed by immunoblotting with anti-pIGF-1R and anti-pEGFR. […]
A cell-based ELISA assay was developed with an IR stably transfected Chinese Hamster Ovary (CHO-IR) cell line. […] The cell lysates were subjected to the sandwich ELISA using immobilized anti-phosphotyrosine antibody and anti-IR antibody.

mice = experiment: Repeated dosing tolerability in mice; assay type: in vivo, mouse
Description: […] Mice were chronically treated with 4524-E7 for 2 weeks and tested if the compound can inhibit food intake.
In liver and muscle, DDN elicited demonstrable IR activation after 3-4 h (FIG. 3B, 1st panel). […] The liver was then dissected and homogenized after 5 min. […] Similarly to the observation in C57/BL6 mice, DDN induces IR signaling in the well-established mice models of non-insulin-dependent diabetes mellitus.

[3] = C57BL/6J mice, 5 mg/kg daily oral, 16 days

In the case of O=C1c2ccccc2C(=O)C2SC(Nc3ccc(Cl)cc3)=NC12 (stereo not shown) [4524-E7, 2-((4-chlorophenyl)amino)naphtho[2,3-d]thiazole-4,9(3aH,9aH)-dione], the “IR tyrosine phosphorylation in the liver, muscle and WAT” value (IR [1]; C57BL/6J mice, 20 mg/kg oral, 3 h after administration) is reported as “all elevated”, the “concentration activating IR cascade strongly and specifically” value (IR [2]) is reported as 1 to 2.5 µM and the “tyrosine phosphorylation on the IR” value (IR [2]; 5 μM, 15 min) is reported as “increased the tyrosine phosphorylation on the IR”. For the same molecule, the IR tyrosine phosphorylation (IR [2]; 5 μM, 30 min) was “triggered IR tyrosine phosphorylation”, the “concentration at which Erk1/2 activation was detected” value (IR [2]; 15 min) was no less than 5 µM and the “concentration elevating Akt phosphorylation” value (IR [2]; 15 min) was 0.5 µM. For the same molecule, the blood chemistry analysis (mice; 5 mg/kg, 2 weeks) was “comparable results between drug-treated mice and vehicle control”, the “food intake and body weight compared to vehicle control” value (mice; 5 mg/kg, 2 weeks) was “not significantly changed” and the “pathological examination on all major organs” value (mice; two week period) was “no demonstrable toxicity was detected”.
With CC(=O)Oc1ccc(OC(C)=O)c2c1C(=O)C(Cl)=C(Cl)C2=O [DDN, 5,8-diacetyloxy-2,3-dichloro-1,4-naphthoquinone] the “IR, Akt and ERK activation in liver” value (IR [1]; C57BL/6J mice, 5 mg/kg through vena cava, after 5 min) was “quickly activated IR”, the “IR and IRS-1 tyrosine phosphorylation in liver and muscle” value (IR [1]; C57BL/6J mice, 20 mg/kg oral) was “confirmed IRS-1 tyrosine phosphorylation in both tissues” and the “time until demonstrable IR activation in liver and muscle” value (IR [1]; C57BL/6J mice, 20 mg/kg oral gavage) was 3 to 4 h. The “IR and ERK phosphorylations in liver and muscle” value (IR [1]; db/db mice) was “enhanced IR and ERK phosphorylations”, the “time until IR activation in liver and muscle” value (IR [1]; injected into blood stream through vena cava) was 5 min and the “IR and ERK phosphorylations in liver and muscle” value (IR [1]; ob/ob mice) was “enhanced IR and ERK phosphorylations”. For the same molecule, the “time at which IR phosphorylation starts” value (IR [2]; 5 μM) was 5 to 15 min and 5 min, the “tyrosine phosphorylation of IRS-1” value (IR [2]; 5 μM, 15 min) was “also increased” and the “tyrosine phosphorylation of the IR β subunit in Y1146 and Y1158/1162/1163” value (IR [2]; 5 μM, 15 min) was “strongly stimulated”. For the same molecule, the “concentration stimulating the IR signal cascades” value (IR [2]; DDN or CSN 30 min, insulin 15 min) was 5 µM, the “food intake and blood biochemistry” value (mice; [3]) was “did not affect the food intake, or blood biochemistry” and the “pathological examination of brain, heart, liver, kidney and muscle” value (mice; [3]) was “failed to detect any demonstrable toxicity”. The side effects (mice; administrated to animals for two weeks) was “does not exhibit any intolerable side effects”.
